The values below come from the NIST ThermoML archive (doi:10.1021/je300920t).

Numbers after ± are expanded uncertainties.

The conditions of data set [1]: Drop volume.
A short description of data set [2]: xn = mol fraction of the nth substance listed. The following applies: Drop volume, x1 = 0.5412.

For `NCCO` [2-aminoethan-1-ol], the surface tension liquid-gas in data set [1] (293.15 K) is on record as 48.48 ± 0.47 mN/m; in data set [1] (303.15 K), 47.64 ± 0.46 mN/m; in data set [1] (313.15 K), 46.88 ± 0.46 mN/m.
On to `NCCO` [2-aminoethan-1-ol] + O, for which the surface tension liquid-gas worked out at 51.5 ± 1.8 mN/m in data set [2] (313.15 K), 50.4 ± 1.8 mN/m in data set [2] (323.15 K), 49.3 ± 1.8 mN/m in data set [2] (333.15 K) and 48.1 ± 1.8 mN/m in data set [2] (343.15 K).

By surface tension liquid-gas is commonly meant the force per length acting along the surface.
